The source of these data is US7910751B2, “Heterocyclidene acetamide derivative” (Mochida Pharmaceutical Co., Ltd., priority 2005, dated 2011).

The structures appear in SMILES notation.

This test deals with T1, human TRPV1 (Homo sapiens, UniProt Q8NER1).
T1 construct: expressed in transfected cells; host or cells: CHO-K1
T1 sequence (Q8NER1 whole entry): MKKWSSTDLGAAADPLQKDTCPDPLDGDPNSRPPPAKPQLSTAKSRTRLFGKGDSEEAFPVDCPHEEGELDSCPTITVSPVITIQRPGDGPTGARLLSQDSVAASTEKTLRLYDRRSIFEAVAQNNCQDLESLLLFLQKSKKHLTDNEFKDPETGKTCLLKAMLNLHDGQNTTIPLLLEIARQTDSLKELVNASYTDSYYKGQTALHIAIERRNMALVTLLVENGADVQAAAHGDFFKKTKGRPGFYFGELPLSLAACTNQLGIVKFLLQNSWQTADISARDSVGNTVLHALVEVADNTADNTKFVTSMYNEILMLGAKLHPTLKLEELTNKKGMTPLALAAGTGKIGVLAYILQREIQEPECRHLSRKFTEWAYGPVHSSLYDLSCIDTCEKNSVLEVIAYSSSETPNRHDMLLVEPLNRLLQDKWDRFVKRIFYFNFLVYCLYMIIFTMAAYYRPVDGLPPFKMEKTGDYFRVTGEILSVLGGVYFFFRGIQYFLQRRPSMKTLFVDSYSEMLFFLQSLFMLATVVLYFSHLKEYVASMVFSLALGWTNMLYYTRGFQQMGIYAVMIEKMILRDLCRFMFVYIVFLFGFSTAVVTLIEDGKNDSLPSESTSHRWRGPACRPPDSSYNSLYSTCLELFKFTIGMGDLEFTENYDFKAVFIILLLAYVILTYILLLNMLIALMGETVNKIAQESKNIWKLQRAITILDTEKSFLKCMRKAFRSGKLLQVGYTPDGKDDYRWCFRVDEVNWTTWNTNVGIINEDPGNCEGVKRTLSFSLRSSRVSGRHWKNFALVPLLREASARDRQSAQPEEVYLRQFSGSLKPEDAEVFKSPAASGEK
Put plainly: Measurement of capsaicin-induced Ca influx in human TRPV1 transformed CHO cell line using FDSS-6000. Type of test: cell-based. The following applies: concentration at which the capsaicin concentration-reaction curve is shifted two times to the right, human TRPV1 transformed CHO cells.
With `O=C(/C=C1\CCCOc2cc(C(F)(F)F)ccc21)Nc1ccc2c(c1)OCO2` [Example 144, (E)-2-(8-trifluoromethyl-3,4-dihydrobenzo[b]oxepin-5(2H)-ylidene)-N-(1,3-benzodioxol-5-yl)acetamide], the “A2 VALUE” is “A (compounds of the present invention having an A2 value of less than 100 nM are represented by A)”.
`CCCC(C)C(=O)N1CC/C(=C\C(=O)Nc2ccc3cccnc3c2)c2ccc(C(F)(F)F)cc21` (stereo not shown) [Example 80, (E)-2-(1-(2-methylpentanoyl)-7-trifluoromethyl-2,3-dihydroquinolin-4(1H)-ylidene)-N-(quinolin-7-yl)acetamide]: the “A2 VALUE” was “A (compounds of the present invention having an A2 value of less than 100 nM are represented by A)”.
Regarding `O=C(/C=C1\CCOc2cc(C(F)(F)F)ccc21)Nc1cccc2c1CCCC2` [Example 202, (E)-2-(7-trifluoromethyl-chroman-4-ylidene)-N-(5,6,7,8-tetrahydronaphthalen-1-yl)acetamide], the “A2 VALUE” is recorded as “A (compounds of the present invention having an A2 value of less than 100 nM are represented by A)”.
The result for `O=C(/C=C1\CCN(C(=O)C2CCOCC2)c2cc(C(F)(F)F)ccc21)Nc1ccc2cccnc2c1` [Example 53, (E)-2-(7-trifluoromethyl-2,3-dihydro-1-(4-pyranoyl)quinolin-4(1H)-ylidene)-N-(quinolin-7-yl)acetamide] reads “A (compounds of the present invention having an A2 value of less than 100 nM are represented by A)”; that for `CCC(F)(F)C(=O)N1CC/C(=C\C(=O)Nc2cccc3c2CC(O)CC3)c2ccc(C(F)(F)F)cc21` (stereo not shown) [Example 95, (E)-2-(1-(2,2-difluorobutanoyl)-7-trifluoromethyl-2,3-dihydroquinolin-4(1H)-ylidene)-N-(7-hydroxy-5,6,7,8-tetrahydronaphthalen-1-yl)acetamide], “A (compounds of the present invention having an A2 value of less than 100 nM are represented by A)”.
`CCC(CC)C(=O)N1CC/C(=C\C(=O)Nc2ccc3cccnc3c2)c2ccc(C(F)(F)F)cc21` [Example 51, (E)-2-(1-(2-ethylbutanoyl)-7-trifluoromethyl-2,3-dihydroquinolin-4(1H)-ylidene)-N-(quinolin-7-yl)acetamide]: the “A2 VALUE” was “A (compounds of the present invention having an A2 value of less than 100 nM are represented by A)”.
As to `O=C(/C=C1\CCN(C(=O)c2ccco2)c2cc(C(F)(F)F)ccc21)Nc1cccc2c1CC(O)CC2` (stereo not shown) [Example 111, (E)-2-(7-trifluoromethyl-2,3-dihydro-1-(2-furancarbonyl)quinolin-4(1H)-ylidene)-N-(7-hydroxy-5,6,7,8-tetrahydronaphthalen-1-yl)acetamide], the “A2 VALUE” is reported as “A (compounds of the present invention having an A2 value of less than 100 nM are represented by A)”.
As to `CC(NC(=O)/C=C1\CCCOc2cc(C(F)(F)F)ccc21)c1ccc2c(c1)OCCO2` (stereo not shown) [Example 33, (E)-2-(8-trifluoromethyl-3,4-dihydrobenzo[b]oxepin-5(2H)-ylidene)-N-(1-(2,3-dihydrobenzo[b][1,4]dioxin-6-yl)ethyl)acetamide], the “A2 VALUE” is on record as “B (compounds having an A2 value of 100 nM or more are represented by B)”.
The result for `Cc1sc2cnccc2c1NC(=O)/C=C1\CCCOc2cc(C(F)(F)F)ccc21` [Example 221, (E)-2-(8-trifluoromethyl-3,4-dihydrobenzo[b]oxepin-5(2H)-ylidene)-N-(2-methylthieno[2,3-c]pyridin-3-yl)acetamide] reads “A (compounds of the present invention having an A2 value of less than 100 nM are represented by A)”; that for `O=C(/C=C1\CCN(C(=O)C2CC2)c2cc(C(F)(F)F)ccc21)Nc1cccc2c1CC(O)CC2` (stereo not shown) [Example 105, (E)-2-(7-trifluoromethyl-2,3-dihydro-1-cyclopropanecarbonylquinolin-4(1H)-ylidene)-N-(7-hydroxy-5,6,7,8-tetrahydronaphthalen-1-yl)acetamide], “A (compounds of the present invention having an A2 value of less than 100 nM are represented by A)”.
